Source: patent publication US20110281810A1, “Composition” (Cognis IP Management GmbH, priority 2010, published 2011)
Values after ≈ are worked out from the molar mass of the structure shown. Each block holds one molecule with its values, some of them ahead of it.

Experiments:
[1] = Solubilization of a homologous series of cinnamic acid derivatives in water by solubilizers; settings: aqueous with cosolvent or surfactant or cyclodextrin
From the text: (§1) Additionally investigated was the solubilization of a homologous series of cinnamic acid derivatives.

physchem [2] = settings: aqueous with cosolvent or surfactant or cyclodextrin
From the text: as §1

physchem [3] = test: physchem
Experimental: The stated products and synergistic mixtures were investigated for their usefulness in pharmaceutical formulations and in particular for solubility improvement for sparingly soluble model substances.
The effect of the stated new solubilizers on the boost to solubility of these active ingredients was investigated and was compared with solubilizers already established for pharmaceutical applications. For this purpose, solution isotherms were recorded, and can be used to ascertain the extent of dissolution mediated by the various solubilizers. The optimum is a sharp increase in drug concentration through the use of small amounts of solubilizer, since increasing concentration may also be accompanied by an increase in the unwanted effects.
The solubilizers investigated were compared with solubilizers already established for pharmaceutical formulations, such as TEGO® SMO 80 V (Polysorbat 80) from Evonik, Solutol® HS 15 from BASF, Ludwigshafen, and Eumulgin® RO 35 PH and Speziol® TPGS Pharma (Tocophersolan) from Cognis, Monheim.

[4] = Eumulgin ES solution in water, Solubility (MW) with Eumulgin ES, water, solubilizer Eumulgin ES
[5] = Eumulgin HPS solution in water, Solubility (MW) with Eumulgin HPS, water, solubilizer Eumulgin HPS
[6] = Eumulgin L solution in water, Solubility (MW) with Eumulgin L, water, solubilizer Eumulgin L
[7] = Eumulgin O10 solution in water, Solubility (MW) with Eumulgin O10, water, solubilizer Eumulgin O10
[8] = Eumulgin RO35 solution in water, Solubility (MW) with Eumulgin RO35, water, solubilizer Eumulgin RO35
[9] = Speziol TPGS solution in water, Solubility (MW) with Speziol TPGS, water, solubilizer Speziol TPGS
[10] = Tego SMO 80V solution in water, Solubility (MW) with Tego SMO 80V, water, solubilizer Tego SMO 80V
[11] = Solubility (MW) with Eumulgin HPS
[12] = Solubility (MW) with Eumulgin L
[13] = Solubility (MW) with Eumulgin O10
[14] = Solubility (MW) with Eumulgin RO35
[15] = Solubility (MW) with Speziol TPGS
[16] = Solubility (MW) with Tego SMO 80V
[17] = aqueous with cosolvent or surfactant or cyclodextrin, Solubility with Eumulgin RO35
[18] = aqueous with cosolvent or surfactant or cyclodextrin, Solubility with TEGO SMO 80V
[19] = water, Solubility, no solubilizer

solubility [1, 4]: 3400 µg/mL (≈ 17.9 mM)
solubility [1, 5]: 25700 µg/mL (≈ 135 mM)
solubility [1, 6]: 15200 µg/mL (≈ 79.9 mM)
solubility [1, 7]: 32600 µg/mL (≈ 171 mM)
solubility [1, 8]: 50900 µg/mL (≈ 268 mM)
solubility [1, 9]: 21000 µg/mL (≈ 110 mM)
solubility [1, 10]: 52500 µg/mL (≈ 276 mM)
SMILES: CC(C)OC(=O)C=Cc1ccccc1 [Isopropyl cinnamate, isopropyl cinnamate]

solubility (physchem [2]; Solubility (MW) with Eumulgin ES): 3200 µg/mL (≈ 12.7 mM)
solubility (physchem [2]; [11]): 2700 µg/mL (≈ 10.7 mM)
solubility (physchem [2]; [12]): 2500 µg/mL (≈ 9.91 mM)
solubility (physchem [2]; [13]): 3700 µg/mL (≈ 14.7 mM)
solubility (physchem [2]; [14]): 4900 µg/mL (≈ 19.4 mM)
solubility (physchem [2]; [15]): 2600 µg/mL (≈ 10.3 mM)
solubility (physchem [2]; [16]): 2500 µg/mL (≈ 9.91 mM)
SMILES: O=C(C=Cc1ccccc1)OCCc1ccccc1 [Phenethyl cinnamate, phenethyl cinnamate]

solubility (physchem [2]; [11]): 23600 µg/mL (≈ 134 mM)
solubility (physchem [2]; [12]): 14700 µg/mL (≈ 83.4 mM)
solubility (physchem [2]; [13]): 47000 µg/mL (≈ 267 mM)
solubility (physchem [2]; [14]): 68000 µg/mL (≈ 386 mM)
solubility (physchem [2]; [15]): 42300 µg/mL (≈ 240 mM)
solubility (physchem [2]; [16]): 96400 µg/mL (≈ 547 mM)
SMILES: CCOC(=O)C=Cc1ccccc1 [Ethyl cinnamate, ethyl cinnamate]

solubility [1, 4]: 3000 µg/mL (≈ 18.5 mM)
solubility [1, 5]: 11400 µg/mL (≈ 70.3 mM)
solubility [1, 6]: 9800 µg/mL (≈ 60.4 mM)
solubility [1, 7]: 9100 µg/mL (≈ 56.1 mM)
solubility [1, 8]: 21500 µg/mL (≈ 133 mM)
solubility [1, 9]: 7900 µg/mL (≈ 48.7 mM)
solubility [1, 10]: 9600 µg/mL (≈ 59.2 mM)
SMILES: COC(=O)C=Cc1ccccc1 [Methyl cinnamate, methyl cinnamate]

solubility [1, 4]: 1200 µg/mL (≈ 5.87 mM)
solubility [1, 5]: 29000 µg/mL (≈ 142 mM)
solubility [1, 6]: 41000 µg/mL (≈ 201 mM)
solubility [1, 7]: 65900 µg/mL (≈ 323 mM)
solubility [1, 8]: 54200 µg/mL (≈ 265 mM)
solubility [1, 9]: 23100 µg/mL (≈ 113 mM)
solubility [1, 10]: 110000 µg/mL (≈ 539 mM)
SMILES: CC(C)COC(=O)C=Cc1ccccc1 [Isobutyl cinnamate, isobutyl cinnamate]

solubility (physchem [3]; aqueous with cosolvent or surfactant or cyclodextrin, Solubility with Eumulgin HPS): 1230 µg/mL
solubility (physchem [3]; aqueous with cosolvent or surfactant or cyclodextrin, Solubility with Eumulgin L): 1070 µg/mL
solubility (physchem [3]; [17]): 1660 µg/mL
solubility (physchem [3]; aqueous with cosolvent or surfactant or cyclodextrin, Solubility with Speziol TPGS): 1720 µg/mL
solubility (physchem [3]; [18]): 1700 µg/mL
solubility (physchem [3]; [19]): 459 µg/mL
SMILES: CC[C@H]1OC(=O)[C@H](C)[C@@H](O[C@H]2C[C@@](C)(OC)[C@@H](O)[C@H](C)O2)[C@H](C)[C@@H](O[C@@H]2O[C@H](C)C[C@H](N(C)C)[C@H]2O)[C@](C)(O)C[C@@H](C)C(=O)[C@H](C)[C@@H](O)[C@]1(C)O [Erythromycin]

Solubility with Eumulgin ES (physchem [3]): 9 µg/mL
Solubility with Eumulgin HPS (physchem [3]): 0.008 mg/m1
Solubility with Eumulgin L (physchem [3]): 7 µg/mL
Solubility with Speziol TPGS (physchem [3]): 8 µg/mL
solubility (physchem [3]; [17]): 11 µg/mL
solubility (physchem [3]; [18]): 15 µg/mL
solubility (physchem [3]; [19]): 1 µg/mL
SMILES: CCC(C)n1ncn(-c2ccc(N3CCN(c4ccc(OCC5COC(Cn6cncn6)(c6ccc(Cl)cc6Cl)O5)cc4)CC3)cc2)c1=O (centres unmarked) [Itraconazole]
